The source of these data is patent publication US5965717A, “Organic pigments from twisted benzidines” (North Carolina State University, priority 1997, dated 1999).

In series [1] the test system is Salmonella. To be noted: cited from earlier work.
Series [2] deals with Salmonella typhimurium strains, TA98 and TA100. Put plainly: Prival modification of the Ames test, with and without hamster liver S9. To be noted: presence and absence of metabolic activation (hamster liver S9). The class given is cell-based. The source says: (§1) The most widely accepted mutagenicity screening test procedure for amines is the Salmonella mammalian microsome mutagenicity assay developed by Ames et al. (Mutat. Res., 31 (1975) 347), hereinafter referred to as the Ames test. Subsequently, a modification of the Ames test was introduced by Prival et al. (Mutat. Res., 97 (2) (1982) 103) specifically for evaluating the mutagenicity of azo compounds, hereinafter referred to as the Prival modification. For a general discussion of mutagenicity as it pertains to colored materials, see, for instance, Freeman et al., Genotoxicity of Azo Dyes: Bases and Implications, Physico-Chemical Principles of Color Chemistry, Advances in Color Chemistry Series, Vol. 4, ed. by A. T. Peters and H. S. Freeman (Blackie Academic Press: Glasgow, 1996) 254-291; Freeman et al., Dyes Pigm. 8 (6) (1987) 431-47; and Freeman et al., CHEMTECH, July (1991), 438-445.
(§2) Mutagenicity testing of the pure derivatives of benzidine was performed using the standard Ames test, as described by Ames et al. (Mutat. Res., 31 (1975) 347). Mutagenicity testing of the various pigments was performed using the standard Ames test, and also using the Prival modification, as described by Prival et al. (Mutat. Res., 97 (2) (1982) 103).
(§3) More particularly, two Salmonella typhimurium strains, TA98 and TA100, were employed for mutagenicity testing. All benzidine derivatives and the pigments made therefrom were evaluated in the presence and absence of metabolic activation. In the Ames test, metabolic activation was achieved using rat liver S9, whereas hamster liver S9 was employed in the Prival modification. A mutagenic response was recorded for a test compound if the number of revertant colonies counted was more than twice the number of spontaneous revertant colonies formed in the absence of the test compound. A nonmutagenic response (Ames negative or Prival negative) was recorded when the number of revertant colonies counted was less than twice the number of spontaneous revertant colonies.
On the technique in general: The Ames test detects mutagens through reverse mutation in bacteria.

Series [3] shares this test system. Put plainly: Ames test (Salmonella mammalian microsome mutagenicity assay), with and without rat liver S9. Type of series: cell-based. The note with it: presence and absence of metabolic activation (rat liver S9).
Excerpt: as §1, §2, §3

For series [4] the following is noted: in N,N-dimethylformamide (DMF); cited from earlier work.

`Nc1ccc(-c2ccc(N)c(Cl)c2)cc1Cl` [3,3'-dichlorobenzidine]: in series [1], the “mutagenicity in the Ames test (prior art)” value (“mutagenicity … (prior art)” for short) is on record as “mutagenic”.

On to `COc1cc(-c2ccc(N)c(OC)c2)ccc1N` [3,3'-dimethoxybenzidine], for which the “mutagenicity … (prior art)” value in series [1] was “mutagenic”.

In the case of `Cc1cc(-c2ccc(N)c(C)c2)ccc1N` [3,3'-dimethylbenzidine], the “mutagenicity … (prior art)” value in series [1] is recorded as “mutagenic”.

`Cc1cc(-c2cc(C)c(N)c(C)c2)cc(C)c1N` [3,5,3',5'-tetramethylbenzidine]: the “mutagenicity … (prior art)” value in series [1] is on record as “nonmutagenic”. As for `CCCOc1cc(-c2cc(OCCC)c(N=CC3C(=O)NC(=S)NC3=O)cc2C)c(C)cc1N=CC1C(=O)NC(=S)NC1=O` [Pigment 93], the “mutagenicity in the Prival modification” value in series [2] is reported as “negative (the number of revertant colonies counted was less than twice the number of spontaneous revertant colonies)”. Moreover, the “mutagenicity in the Ames test” value in series [3] is “negative (the number of revertant colonies counted was less than twice the number of spontaneous revertant colonies)”. As to `CCCOc1cc(-c2cc(OCCC)c(NN=C(C(C)=O)C(=O)Nc3ccccc3)cc2C)c(C)cc1NN=C(C(C)=O)C(=O)Nc1ccccc1` [Pigment 95], in series [2], the “mutagenicity in the Prival modification” value was “negative (the number of revertant colonies counted was less than twice the number of spontaneous revertant colonies)”. Further, in series [3], the “mutagenicity in the Ames test” value is listed as “negative (the number of revertant colonies counted was less than twice the number of spontaneous revertant colonies)”.

Consider `CCCOc1cc(-c2cc(OCCC)c(NN=C(C(C)=O)C(=O)Nc3ccccc3OC)cc2OC)c(OC)cc1NN=C(C(C)=O)C(=O)Nc1ccccc1OC` [Pigment 98], for which, in series [2], the “mutagenicity in the Prival modification” value was “negative (the number of revertant colonies counted was less than twice the number of spontaneous revertant colonies)”. Besides, in series [3], the “mutagenicity in the Ames test” value is listed as “negative (the number of revertant colonies counted was less than twice the number of spontaneous revertant colonies)”. For the molecule `CCCOc1cc(-c2cc(OCCC)c(NN=C(C(C)=O)C(=O)Nc3ccccc3OC)cc2Cl)c(Cl)cc1NN=C(C(C)=O)C(=O)Nc1ccccc1OC` [Pigment 107], in series [2], the “mutagenicity in the Prival modification” value is “negative (the number of revertant colonies counted was less than twice the number of spontaneous revertant colonies)”. Also, in series [3], the “mutagenicity in the Ames test” value is recorded as “negative (the number of revertant colonies counted was less than twice the number of spontaneous revertant colonies)”. Consider `CCCOc1cc(-c2cc(OCCC)c(NN=C3C(=O)N(c4ccccc4)N=C3C)cc2C)c(C)cc1NN=C1C(=O)N(c2ccccc2)N=C1C` [Pigment 108], for which, in series [2], the “mutagenicity in the Prival modification” value is “negative (the number of revertant colonies counted was less than twice the number of spontaneous revertant colonies)”. Also, the “mutagenicity in the Ames test” value in series [3] was “negative (the number of revertant colonies counted was less than twice the number of spontaneous revertant colonies)”.

As for `CCCOc1cc(-c2cc(OCCC)c(NN=C(C(C)=O)C(=O)Nc3ccc4[nH]c(=O)[nH]c4c3)cc2C)c(C)cc1NN=C(C(C)=O)C(=O)Nc1ccc2[nH]c(=O)[nH]c2c1` [Pigment 113], in series [2], the “mutagenicity in the Prival modification” value is “negative (the number of revertant colonies counted was less than twice the number of spontaneous revertant colonies)”. Besides, in series [3], the “mutagenicity in the Ames test” value is on record as “negative (the number of revertant colonies counted was less than twice the number of spontaneous revertant colonies)”. Consider `COc1cc(-c2ccc(NN=C(C(C)=O)C(=O)Nc3ccccc3)c(OC)c2)ccc1NN=C(C(C)=O)C(=O)Nc1ccccc1` [compound 1], for which the λmax in series [4] was 445 nm. As to `COc1ccccc1NN=C(C(C)=O)C(=O)Nc1ccccc1` [compound 2], in series [4], the λmax is reported as 392 nm.

For the molecule `CCCOc1cc(-c2cc(OCCC)c(N)cc2C)c(C)cc1N` [compound 12, 2,2'-dimethyl-5,5'-dipropoxybenzidine], the “mutagenicity in the Ames test” value in series [3] was “Ames negative (the number of revertant colonies counted was less than twice the number of spontaneous revertant colonies)”.

Consider `CCCOc1cc(-c2cc(OCCC)c(N)cc2OC)c(OC)cc1N` [compound 26, 2,2'-dimethoxy-5,5'-dipropoxybenzidine], for which the “mutagenicity in the Ames test” value in series [3] is listed as “Ames negative (the number of revertant colonies counted was less than twice the number of spontaneous revertant colonies)”.
